Structures are written as SMILES.

The values that follow come from ChEMBL document CHEMBL5291721, “A preclinical secondary pharmacology resource illuminates target-adverse drug reaction associations of marketed drugs” (Nat Commun, 2023).

Targets include Histamine H3 receptor (Homo sapiens, UniProt Q9Y5N1); D(1A) dopamine receptor (Homo sapiens, UniProt P21728); D(3) dopamine receptor (Homo sapiens, UniProt P35462); Mu-type opioid receptor (Homo sapiens, UniProt P35372).
The target of experiment [1] is 3',5'-cyclic-AMP phosphodiesterase 4A (Homo sapiens, UniProt P27815). The format is functional.
For the next experiment, the target named is Prothrombin (Homo sapiens, UniProt P00734). The format is functional.
Experiment [2] has as its target T1, Alpha-2A adrenergic receptor (Homo sapiens, UniProt P08913).
T1 sequence (P08913 whole entry): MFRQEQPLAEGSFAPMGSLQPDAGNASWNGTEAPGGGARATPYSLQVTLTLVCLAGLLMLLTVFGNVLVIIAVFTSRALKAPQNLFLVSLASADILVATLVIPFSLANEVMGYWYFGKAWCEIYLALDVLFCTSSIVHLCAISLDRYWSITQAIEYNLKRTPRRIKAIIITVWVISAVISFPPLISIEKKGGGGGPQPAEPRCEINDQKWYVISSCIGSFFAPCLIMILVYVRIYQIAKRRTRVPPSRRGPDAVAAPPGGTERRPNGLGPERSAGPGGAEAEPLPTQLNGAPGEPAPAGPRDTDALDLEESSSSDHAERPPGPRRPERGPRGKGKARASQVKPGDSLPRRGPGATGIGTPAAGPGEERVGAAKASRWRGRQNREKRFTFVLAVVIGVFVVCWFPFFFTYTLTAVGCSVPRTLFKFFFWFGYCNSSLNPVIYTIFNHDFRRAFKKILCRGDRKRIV

Another experiment deals with T2, Estrogen receptor (Homo sapiens, UniProt P03372).
T2 sequence (P03372 whole entry): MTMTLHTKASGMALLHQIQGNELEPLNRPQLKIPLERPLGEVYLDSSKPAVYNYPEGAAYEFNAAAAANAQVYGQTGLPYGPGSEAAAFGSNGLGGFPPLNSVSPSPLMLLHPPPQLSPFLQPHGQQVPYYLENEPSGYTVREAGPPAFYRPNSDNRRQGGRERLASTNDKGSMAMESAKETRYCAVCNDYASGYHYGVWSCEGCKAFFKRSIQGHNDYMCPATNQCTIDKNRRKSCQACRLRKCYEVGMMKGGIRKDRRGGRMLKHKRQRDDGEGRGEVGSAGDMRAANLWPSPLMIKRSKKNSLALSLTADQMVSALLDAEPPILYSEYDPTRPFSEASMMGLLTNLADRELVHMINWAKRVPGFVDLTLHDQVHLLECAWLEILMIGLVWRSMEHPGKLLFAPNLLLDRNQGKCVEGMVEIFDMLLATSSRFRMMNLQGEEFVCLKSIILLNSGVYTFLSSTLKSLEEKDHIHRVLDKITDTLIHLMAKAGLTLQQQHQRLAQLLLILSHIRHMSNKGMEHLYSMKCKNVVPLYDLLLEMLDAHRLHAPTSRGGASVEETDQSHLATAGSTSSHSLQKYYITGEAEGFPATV

A further experiment addresses T3, Thromboxane A2 receptor (Homo sapiens, UniProt P21731).
T3 sequence (P21731 whole entry): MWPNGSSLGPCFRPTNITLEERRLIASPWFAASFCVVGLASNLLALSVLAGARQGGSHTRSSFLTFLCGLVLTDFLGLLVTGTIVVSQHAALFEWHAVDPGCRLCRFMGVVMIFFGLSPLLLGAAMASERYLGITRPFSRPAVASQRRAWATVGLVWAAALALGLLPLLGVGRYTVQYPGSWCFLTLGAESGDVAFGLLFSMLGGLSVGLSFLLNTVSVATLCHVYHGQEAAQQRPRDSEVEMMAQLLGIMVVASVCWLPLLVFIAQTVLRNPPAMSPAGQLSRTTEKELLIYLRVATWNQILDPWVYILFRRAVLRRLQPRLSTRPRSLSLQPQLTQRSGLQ
The format is functional, cell-based.

In experiment [3] the target is T4, 5-hydroxytryptamine receptor 1A (Homo sapiens, UniProt P08908).
T4 sequence (P08908 whole entry): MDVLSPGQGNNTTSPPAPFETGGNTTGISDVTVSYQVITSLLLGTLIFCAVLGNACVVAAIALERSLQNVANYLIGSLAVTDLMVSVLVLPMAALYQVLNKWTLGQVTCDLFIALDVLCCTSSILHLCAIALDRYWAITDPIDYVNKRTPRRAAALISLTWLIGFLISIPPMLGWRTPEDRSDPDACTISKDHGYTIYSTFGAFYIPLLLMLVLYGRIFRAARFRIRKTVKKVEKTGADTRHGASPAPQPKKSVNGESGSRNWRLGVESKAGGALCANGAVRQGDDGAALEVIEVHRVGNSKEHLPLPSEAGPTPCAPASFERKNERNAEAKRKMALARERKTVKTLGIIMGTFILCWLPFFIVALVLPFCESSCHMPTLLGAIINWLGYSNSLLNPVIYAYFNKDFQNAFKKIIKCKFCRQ

In experiment [4] the target is Sodium-dependent dopamine transporter (Homo sapiens, UniProt Q01959).
The target of experiment [5] is Sodium-dependent serotonin transporter (Homo sapiens, UniProt P31645).
In experiment [6] the target is Voltage-gated inwardly rectifying potassium channel KCNH2 (Homo sapiens, UniProt Q12809). The format is functional. Particulars: read-out: AC50.
For experiment [7], the target named is Prostaglandin G/H synthase 1 (Homo sapiens, UniProt P23219). The format is functional.
Also: assay procedure not described here.

Chain of Sodium-dependent serotonin transporter (P31645 whole entry): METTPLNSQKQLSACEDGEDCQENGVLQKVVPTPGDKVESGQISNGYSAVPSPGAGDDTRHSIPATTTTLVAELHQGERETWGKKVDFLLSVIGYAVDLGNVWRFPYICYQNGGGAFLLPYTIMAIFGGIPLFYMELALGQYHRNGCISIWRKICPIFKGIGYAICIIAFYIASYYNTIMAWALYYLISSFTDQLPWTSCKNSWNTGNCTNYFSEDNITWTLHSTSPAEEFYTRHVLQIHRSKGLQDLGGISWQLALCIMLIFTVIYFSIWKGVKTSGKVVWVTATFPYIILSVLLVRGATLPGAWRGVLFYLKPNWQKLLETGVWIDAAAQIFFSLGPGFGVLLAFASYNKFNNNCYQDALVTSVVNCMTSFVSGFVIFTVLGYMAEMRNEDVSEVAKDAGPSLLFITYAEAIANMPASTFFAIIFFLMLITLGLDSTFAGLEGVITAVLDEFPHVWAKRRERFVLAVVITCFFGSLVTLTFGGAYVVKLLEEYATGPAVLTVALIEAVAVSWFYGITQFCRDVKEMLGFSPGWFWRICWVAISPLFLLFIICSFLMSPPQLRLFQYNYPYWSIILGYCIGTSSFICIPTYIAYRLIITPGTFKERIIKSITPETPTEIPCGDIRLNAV
Chain of Voltage-gated inwardly rectifying potassium channel KCNH2 (Q12809 whole entry): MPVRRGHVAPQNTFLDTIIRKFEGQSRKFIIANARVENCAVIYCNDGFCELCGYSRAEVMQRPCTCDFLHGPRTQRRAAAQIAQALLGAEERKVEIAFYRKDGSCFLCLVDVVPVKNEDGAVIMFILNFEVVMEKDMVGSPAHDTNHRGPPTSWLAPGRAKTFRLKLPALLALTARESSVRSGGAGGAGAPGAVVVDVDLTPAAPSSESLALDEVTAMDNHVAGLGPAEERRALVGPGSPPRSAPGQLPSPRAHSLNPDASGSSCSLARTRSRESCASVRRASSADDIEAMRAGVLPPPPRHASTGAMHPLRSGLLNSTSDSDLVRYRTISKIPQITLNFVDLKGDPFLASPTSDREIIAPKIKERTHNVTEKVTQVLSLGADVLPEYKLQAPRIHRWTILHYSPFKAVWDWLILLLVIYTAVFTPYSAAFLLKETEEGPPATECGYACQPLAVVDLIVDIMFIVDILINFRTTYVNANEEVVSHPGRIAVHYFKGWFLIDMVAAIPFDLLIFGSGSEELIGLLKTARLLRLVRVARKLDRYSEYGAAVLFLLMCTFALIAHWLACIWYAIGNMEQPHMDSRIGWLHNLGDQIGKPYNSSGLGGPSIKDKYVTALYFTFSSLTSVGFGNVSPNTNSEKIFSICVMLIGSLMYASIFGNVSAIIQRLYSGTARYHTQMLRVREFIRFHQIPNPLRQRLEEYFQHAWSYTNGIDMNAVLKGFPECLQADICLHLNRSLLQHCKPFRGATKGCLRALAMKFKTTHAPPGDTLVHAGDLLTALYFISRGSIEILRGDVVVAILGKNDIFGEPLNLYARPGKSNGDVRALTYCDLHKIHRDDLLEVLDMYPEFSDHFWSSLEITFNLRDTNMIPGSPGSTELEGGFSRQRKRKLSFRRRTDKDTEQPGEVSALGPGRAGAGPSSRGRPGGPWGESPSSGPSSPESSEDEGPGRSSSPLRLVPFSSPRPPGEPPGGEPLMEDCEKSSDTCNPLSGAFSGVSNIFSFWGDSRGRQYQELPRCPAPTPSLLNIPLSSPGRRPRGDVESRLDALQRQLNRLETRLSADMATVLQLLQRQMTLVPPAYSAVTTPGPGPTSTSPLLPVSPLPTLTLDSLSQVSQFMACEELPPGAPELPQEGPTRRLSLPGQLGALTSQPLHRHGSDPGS
Chain of Prostaglandin G/H synthase 1 (P23219 whole entry): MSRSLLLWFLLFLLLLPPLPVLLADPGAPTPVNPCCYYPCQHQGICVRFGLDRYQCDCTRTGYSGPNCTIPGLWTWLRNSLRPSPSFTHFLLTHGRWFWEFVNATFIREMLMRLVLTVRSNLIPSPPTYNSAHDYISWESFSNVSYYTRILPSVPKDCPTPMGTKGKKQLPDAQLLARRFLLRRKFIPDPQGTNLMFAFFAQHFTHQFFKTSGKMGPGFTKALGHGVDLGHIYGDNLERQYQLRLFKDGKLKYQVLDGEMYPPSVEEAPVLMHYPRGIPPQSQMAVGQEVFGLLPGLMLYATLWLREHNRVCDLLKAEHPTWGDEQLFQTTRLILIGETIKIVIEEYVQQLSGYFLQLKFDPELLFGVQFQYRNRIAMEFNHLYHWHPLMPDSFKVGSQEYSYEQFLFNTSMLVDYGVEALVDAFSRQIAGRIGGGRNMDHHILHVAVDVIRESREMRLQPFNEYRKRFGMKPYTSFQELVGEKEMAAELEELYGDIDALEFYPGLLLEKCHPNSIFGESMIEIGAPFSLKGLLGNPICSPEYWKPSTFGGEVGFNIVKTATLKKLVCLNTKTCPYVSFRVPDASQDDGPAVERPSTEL
Chain of Histamine H3 receptor (Q9Y5N1 whole entry): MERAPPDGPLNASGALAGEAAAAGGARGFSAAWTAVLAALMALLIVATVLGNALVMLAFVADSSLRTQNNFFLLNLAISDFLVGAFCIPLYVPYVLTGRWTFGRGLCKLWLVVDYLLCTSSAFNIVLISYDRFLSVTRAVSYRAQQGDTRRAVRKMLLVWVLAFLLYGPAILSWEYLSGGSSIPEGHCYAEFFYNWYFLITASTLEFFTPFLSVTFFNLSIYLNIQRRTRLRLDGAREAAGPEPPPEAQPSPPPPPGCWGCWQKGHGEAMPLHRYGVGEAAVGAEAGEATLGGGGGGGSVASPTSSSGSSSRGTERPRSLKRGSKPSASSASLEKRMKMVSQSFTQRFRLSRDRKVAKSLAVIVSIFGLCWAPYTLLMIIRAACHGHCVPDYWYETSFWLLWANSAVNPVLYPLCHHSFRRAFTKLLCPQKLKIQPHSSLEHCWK
Chain of Sodium-dependent dopamine transporter (Q01959 whole entry): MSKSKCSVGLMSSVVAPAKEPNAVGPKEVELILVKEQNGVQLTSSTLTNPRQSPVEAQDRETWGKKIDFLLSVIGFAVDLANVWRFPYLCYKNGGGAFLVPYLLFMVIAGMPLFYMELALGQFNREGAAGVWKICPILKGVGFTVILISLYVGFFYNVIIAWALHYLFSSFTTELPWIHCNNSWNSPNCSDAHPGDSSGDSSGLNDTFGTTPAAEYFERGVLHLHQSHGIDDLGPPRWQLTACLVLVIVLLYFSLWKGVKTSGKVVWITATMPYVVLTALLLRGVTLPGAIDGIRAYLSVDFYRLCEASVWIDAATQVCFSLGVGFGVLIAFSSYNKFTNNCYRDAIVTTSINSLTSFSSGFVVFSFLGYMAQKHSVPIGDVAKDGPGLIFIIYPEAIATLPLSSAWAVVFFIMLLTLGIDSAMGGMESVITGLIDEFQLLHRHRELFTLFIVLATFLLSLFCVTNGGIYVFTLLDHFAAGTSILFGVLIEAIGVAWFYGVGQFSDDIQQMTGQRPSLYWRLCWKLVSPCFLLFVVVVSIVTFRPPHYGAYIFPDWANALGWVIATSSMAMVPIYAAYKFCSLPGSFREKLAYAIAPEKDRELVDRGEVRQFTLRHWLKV
Chain of 3',5'-cyclic-AMP phosphodiesterase 4A (P27815 whole entry): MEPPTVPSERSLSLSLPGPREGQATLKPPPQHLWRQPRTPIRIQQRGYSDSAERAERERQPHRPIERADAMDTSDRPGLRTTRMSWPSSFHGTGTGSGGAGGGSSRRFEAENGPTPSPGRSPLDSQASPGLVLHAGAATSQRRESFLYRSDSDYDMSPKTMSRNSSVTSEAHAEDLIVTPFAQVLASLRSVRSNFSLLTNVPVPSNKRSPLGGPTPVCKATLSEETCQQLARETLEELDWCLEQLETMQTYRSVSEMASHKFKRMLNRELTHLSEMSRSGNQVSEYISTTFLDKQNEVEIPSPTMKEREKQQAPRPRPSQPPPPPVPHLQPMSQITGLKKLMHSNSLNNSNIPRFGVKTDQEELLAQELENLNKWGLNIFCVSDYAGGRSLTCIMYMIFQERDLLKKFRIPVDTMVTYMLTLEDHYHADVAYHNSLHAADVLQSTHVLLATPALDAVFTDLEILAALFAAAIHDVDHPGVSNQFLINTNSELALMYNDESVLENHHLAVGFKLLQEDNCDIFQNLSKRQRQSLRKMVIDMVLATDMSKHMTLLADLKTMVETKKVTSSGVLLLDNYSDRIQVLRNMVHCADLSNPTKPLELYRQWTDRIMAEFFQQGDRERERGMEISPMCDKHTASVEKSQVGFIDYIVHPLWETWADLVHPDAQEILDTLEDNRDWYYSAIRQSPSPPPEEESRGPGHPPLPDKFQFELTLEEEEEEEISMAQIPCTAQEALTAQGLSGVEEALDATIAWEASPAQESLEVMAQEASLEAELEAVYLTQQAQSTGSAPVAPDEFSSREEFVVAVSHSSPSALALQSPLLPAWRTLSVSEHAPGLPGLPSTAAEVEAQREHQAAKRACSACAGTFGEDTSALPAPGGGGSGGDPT
Chain of D(3) dopamine receptor (P35462 whole entry): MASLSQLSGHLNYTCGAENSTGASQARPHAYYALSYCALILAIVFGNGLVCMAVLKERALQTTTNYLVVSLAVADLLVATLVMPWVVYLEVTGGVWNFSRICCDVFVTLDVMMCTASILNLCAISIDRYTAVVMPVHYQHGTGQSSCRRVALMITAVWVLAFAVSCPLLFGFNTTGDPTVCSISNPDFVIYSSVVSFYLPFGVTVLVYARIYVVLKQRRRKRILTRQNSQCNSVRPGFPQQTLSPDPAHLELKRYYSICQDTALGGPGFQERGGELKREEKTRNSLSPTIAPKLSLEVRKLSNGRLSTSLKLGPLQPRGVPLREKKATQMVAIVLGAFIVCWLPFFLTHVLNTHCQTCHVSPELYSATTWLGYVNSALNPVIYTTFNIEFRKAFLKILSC

On to `NC(=O)c1cccc2cn(-c3ccc([C@@H]4CCCNC4)cc3)nc12` [NIRAPARIB], for which the AC50 (commonly the concentration at which the activity in the assay is half-maximal) in [1] was > 30 µM; on Histamine H3 receptor, 26 µM; at D(1A) dopamine receptor it was > 30 µM; on Prothrombin, > 30 µM; in experiment [2] it was > 30 µM; on Estrogen receptor it was > 30 µM. The concentration at half-maximal activity (AC50) at Thromboxane A2 receptor is > 30 µM; in experiment [3], > 30 µM; at D(3) dopamine receptor, > 30 µM; in [4], 0.113 µM; on Mu-type opioid receptor, > 30 µM; in experiment [5], 1.17 µM. The half-maximal activity concentration (AC50) in experiment [6] and in [7] was > 30 µM in each case.
`Nc1ccc(/N=N/c2ccccc2)c(N)n1` [PHENAZOPYRIDINE]: the concentration at half-maximal activity (AC50) was 22.5 µM in [1]; > 30 µM on Histamine H3 receptor; 9.35 µM on D(1A) dopamine receptor; > 30 µM at Prothrombin; > 30 µM in experiment [2]; > 30 µM at Estrogen receptor. Also, the AC50 was 28.4 µM at Thromboxane A2 receptor; > 30 µM in experiment [3]; > 30 µM at D(3) dopamine receptor; 4.71 µM in experiment [4]; > 30 µM on Mu-type opioid receptor; > 30 µM in [5]. Moreover, the AC50 stood at 14 µM in experiment [6] and 24.9 µM in [7].
Take `O=C(O)CCn1c2c(c3ccccc31)C[C@H](NS(=O)(=O)c1ccc(F)cc1)CC2` [RAMATROBAN]: the half-maximal activity concentration (AC50) was > 30 µM in experiment [1]; > 30 µM at Histamine H3 receptor; > 30 µM at D(1A) dopamine receptor; > 30 µM at Prothrombin; > 30 µM in experiment [2]; > 10 µM at Estrogen receptor. For the same compound, the AC50 on Thromboxane A2 receptor is 0.04 µM; in [3], > 30 µM; on D(3) dopamine receptor, > 30 µM; in experiment [4], > 30 µM; at Mu-type opioid receptor, > 30 µM; in experiment [5] it was > 30 µM. The AC50 in [6] and in experiment [7] was > 30 µM in each case.
As for `COCC1=C(C(=O)OC(C)OC(=O)OC(C)C)N2C(=O)[C@@H](NC(=O)/C(=N\OC)c3csc(N)n3)[C@H]2SC1` (stereo not given in full) [CEFPODOXIME PROXETIL], the half-maximal activity concentration (AC50) (in [1]; at Histamine H3 receptor; on D(1A) dopamine receptor; on Prothrombin; in experiment [2]; at Estrogen receptor) was > 30 µM in each case. Moreover, the AC50 (on Thromboxane A2 receptor; in experiment [3]; on D(3) dopamine receptor; in [4]; on Mu-type opioid receptor; in experiment [5]) was > 30 µM each time. In addition, the concentration at half-maximal activity (AC50) in [6] and in [7] was > 30 µM throughout.
As to `CN1C(=O)N(C)C2C1N(C)C(=O)N2C` (stereo not given) [MEBICAR], the concentration at half-maximal activity (AC50) (in experiment [1]; on Histamine H3 receptor; on D(1A) dopamine receptor; at Prothrombin; in [2]; on Estrogen receptor) was > 30 µM throughout. The AC50 (on Thromboxane A2 receptor; in experiment [3]; at D(3) dopamine receptor; in experiment [4]; at Mu-type opioid receptor; in [5]) was > 30 µM throughout. For the same compound, the AC50 in experiment [6] and in experiment [7] was > 30 µM throughout.
Regarding `CCOC(=O)CC(SP(=S)(OC)OC)C(=O)OCC` (stereo not given) [MALATHION], the AC50 (in [1]; on Histamine H3 receptor; on D(1A) dopamine receptor; on Prothrombin; in [2]; at Estrogen receptor) was > 30 µM in each case. Moreover, the AC50 (at Thromboxane A2 receptor; in [3]; at D(3) dopamine receptor; in experiment [4]; at Mu-type opioid receptor; in experiment [5]) was > 30 µM each time. The AC50 in [6] and in experiment [7] was > 30 µM each time.
As to `N/N=c1/cc2c(n[nH]1)CCN(C(=O)c1ccccc1)C2` [ENDRALAZINE], the concentration at half-maximal activity (AC50) (in experiment [1]; at Histamine H3 receptor; on D(1A) dopamine receptor; at Prothrombin; in [2]; on Estrogen receptor) was > 30 µM in each case. In addition, the AC50 (at Thromboxane A2 receptor; in experiment [3]; at D(3) dopamine receptor; in experiment [4]; on Mu-type opioid receptor; in experiment [5]) was > 30 µM throughout. In addition, the AC50 in experiment [6] was > 30 µM; in [7], 22.3 µM.
In the case of `COc1cc(NCc2ccc3nc(N)nc(N)c3c2C)cc(OC)c1OC` [TRIMETREXATE], the AC50 is 7.19 µM in experiment [1]; > 30 µM at Histamine H3 receptor; 1.94 µM at D(1A) dopamine receptor; > 30 µM on Prothrombin; > 30 µM in [2]; 23 µM at Estrogen receptor. Moreover, the concentration at half-maximal activity (AC50) on Thromboxane A2 receptor is > 30 µM; in experiment [3], 8.06 µM; on D(3) dopamine receptor, 2.67 µM; in experiment [4] it was 9.54 µM; at Mu-type opioid receptor, 1.2 µM; in [5] it was > 30 µM. The results for the AC50 in [6] and in experiment [7] were 2.16 µM and 2.4 µM, respectively.
On to `CC(C)=CCC1C(=O)N(c2ccccc2)N(c2ccccc2)C1=O` [FEPRAZONE], for which the AC50 (in experiment [1]; at Histamine H3 receptor; on D(1A) dopamine receptor; on Prothrombin; in experiment [2]; at Estrogen receptor) was > 30 µM throughout. For the same compound, the AC50 (at Thromboxane A2 receptor; in experiment [3]; on D(3) dopamine receptor; in [4]; on Mu-type opioid receptor; in experiment [5]) was > 30 µM throughout. Further, the AC50 in experiment [7] was > 30 µM.
